Laboratory results from ChEMBL document CHEMBL1153804, “Optimization of a series of quinazolinone-derived antagonists of CXCR3” (Bioorg Med Chem Lett, 2009).

tested on: Blood; experiment: Drug level in bleomycin-induced mouse blood at 3 mg/mL, sc; assay type: ADME, tissue-based

Drug uptake | SMILES
26 ng/mL | CCOc1ccc(-n2c([C@@H](C)N(Cc3cccnc3)C(=O)Cc3ccc(OC(F)(F)F)cc3)nc3ncccc3c2=O)cc1
19 ng/mL | CCOc1ccc(-n2c([C@@H](C)N(Cc3ccc[n+]([O-])c3)C(=O)Cc3ccc(OC(F)(F)F)cc3)nc3ncccc3c2=O)cc1

tested on: Blood; experiment: Drug level in bleomycin-induced mouse blood at 10 mg/mL, sc; assay type: ADME, tissue-based

Drug uptake | SMILES
104 ng/mL | CCOc1ccc(-n2c([C@@H](C)N(Cc3cccnc3)C(=O)Cc3ccc(OC(F)(F)F)cc3)nc3ncccc3c2=O)cc1

target: T1, C-X-C chemokine receptor type 3 (Homo sapiens, UniProt P49682); experiment: Displacement of [125I]-1P10 from human CXCR3 expressed in PBMC after 2 hrs in RPMI buffer by scintillation counting
T1 sequence (P49682 whole entry): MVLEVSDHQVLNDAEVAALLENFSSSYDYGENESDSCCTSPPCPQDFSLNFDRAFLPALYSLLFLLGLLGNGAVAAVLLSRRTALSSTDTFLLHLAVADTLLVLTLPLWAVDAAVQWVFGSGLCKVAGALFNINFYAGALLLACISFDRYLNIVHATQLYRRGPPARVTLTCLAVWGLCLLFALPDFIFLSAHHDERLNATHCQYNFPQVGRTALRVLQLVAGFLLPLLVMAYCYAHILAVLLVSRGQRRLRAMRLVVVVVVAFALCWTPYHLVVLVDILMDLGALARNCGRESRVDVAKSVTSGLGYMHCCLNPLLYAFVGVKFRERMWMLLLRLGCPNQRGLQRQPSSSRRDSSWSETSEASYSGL

SMILES | IC50
CCOc1ccc(-n2c([C@@H](C)N(C(=O)Cc3ccc(F)c(C(F)(F)F)c3)C3CCN(C(C)C)CC3)nc3ncccc3c2=O)cc1 | 1 nM
CCOc1ccc(-n2c([C@@H](C)N(Cc3cc(C)no3)C(=O)Cc3ccc(F)c(C(F)(F)F)c3)nc3ncccc3c2=O)cc1 | 2 nM
CCOc1ccc(-n2c([C@@H](C)N(Cc3cccnc3)C(=O)Cc3cccc(C(F)(F)F)c3)nc3ccccc3c2=O)cc1 | 11 nM
CCOc1ccc(-n2c([C@@H](C)N(Cc3cccnc3)C(=O)Cc3ccc(F)c(C(F)(F)F)c3)nc3nccnc3c2=O)cc1 | 42 nM
CCOc1ccc(-n2c([C@@H](C)N(Cc3cccnc3)C(=O)Cc3cc(F)c(F)c(F)c3)nc3ccccc3c2=O)cc1 | 8 nM
CCOc1ccc(-n2c([C@@H](C)N(C(=O)Cc3ccc(F)c(C(F)(F)F)c3)C3CCN(C(C)=O)CC3)nc3ncccc3c2=O)cc1 | 6 nM
CCOc1ccc(-n2c([C@@H](C)N(Cc3cccnc3)C(=O)Cc3ccc(F)c(C(F)(F)F)c3)nc3cccnc3c2=O)cc1 | 110 nM
CCOc1ccc(-n2c([C@@H](C)N(Cc3cccnc3)C(=O)CCc3ccc(C(F)(F)F)cc3)nc3ccccc3c2=O)cc1 | 2090 nM
CCOc1ccc(-n2c([C@@H](C)N(Cc3ccc[n+]([O-])c3)C(=O)Cc3ccc(OC(F)(F)F)cc3)nc3ncccc3c2=O)cc1 | 4 nM
CCOc1ccc(-n2c([C@@H](C)N(C[C@@H]3CCCN3C(C)C)C(=O)Cc3ccc(F)c(C(F)(F)F)c3)nc3ncccc3c2=O)cc1 | 5 nM
CCOc1ccc(-n2c([C@@H](C)N(C[C@H]3CCCN3C(C)C)C(=O)Cc3ccc(F)c(C(F)(F)F)c3)nc3ncccc3c2=O)cc1 | 2 nM
CCOc1ccc(-n2c([C@@H](C)N(Cc3cccnc3)C(=O)Cn3cnc(C(F)(F)F)c3)nc3ccccc3c2=O)cc1 | 7 nM
CCOc1ccc(-n2c([C@@H](C)N(Cc3cccnc3)C(=O)Cc3nc4ccc(C(F)(F)F)cc4[nH]3)nc3ccccc3c2=O)cc1 | 210 nM
CCOc1ccc(-n2c([C@@H](C)N(Cc3cccnc3)C(=O)Cc3ccc(C#N)cc3)nc3ccccc3c2=O)cc1 | 21 nM

The next lines start with the values.

IC50 | SMILES
5 nM | CCOc1ccc(-n2c([C@@H](C)N(Cc3cccnc3)C(=O)Cc3ccc(F)c(C(F)(F)F)c3)nc3ncccc3c2=O)cc1
770 nM | CCOc1ccc(-n2c([C@@H](C)N(Cc3cccnc3)C(=O)Cc3ccc(S(C)(=O)=O)cc3)nc3ccccc3c2=O)cc1
690 nM | CCOc1ccc(-n2c([C@@H](C)N(Cc3cccnc3)C(=O)CN3CCN(CCC(F)(F)F)CC3)nc3ccccc3c2=O)cc1
32 nM | CCOc1ccc(-n2c([C@@H](C)N(Cc3cccnc3)C(=O)Cc3ccc(F)c(C(F)(F)F)c3)nc3cnccc3c2=O)cc1
2 nM | CCOc1ccc(-n2c([C@@H](C)N(C[C@H]3CCCN3)C(=O)Cc3ccc(F)c(C(F)(F)F)c3)nc3ncccc3c2=O)cc1
40 nM | CCOc1ccc(-n2c([C@@H](C)N(Cc3cccnc3)C(=O)Cc3ccc(F)c(F)c3)nc3ccccc3c2=O)cc1
2 nM | CCOc1ccc(-n2c([C@@H](C)N(CC3CCN(C)CC3)C(=O)Cc3ccc(F)c(C(F)(F)F)c3)nc3ncccc3c2=O)cc1
7 nM | CCOc1ccc(-n2c([C@@H](C)N(Cc3cccnc3)C(=O)Cc3cc(C(F)(F)F)cc(C(F)(F)F)c3)nc3ccccc3c2=O)cc1
5 nM | CCOc1ccc(-n2c([C@@H](C)N(C(=O)Cc3ccc(F)c(C(F)(F)F)c3)C3CCOCC3)nc3ncccc3c2=O)cc1

tested on: Blood; experiment: Drug level in bleomycin-induced mouse blood at 1 mg/mL, sc; assay type: ADME, tissue-based

Drug uptake | SMILES
19 ng/mL | CCOc1ccc(-n2c([C@@H](C)N(Cc3cccnc3)C(=O)Cc3ccc(OC(F)(F)F)cc3)nc3ncccc3c2=O)cc1
14 ng/mL | CCOc1ccc(-n2c([C@@H](C)N(Cc3ccc[n+]([O-])c3)C(=O)Cc3ccc(OC(F)(F)F)cc3)nc3ncccc3c2=O)cc1
